# Test results from ChEMBL document CHEMBL4270563, “Neurogenic and neuroprotective donepezil-flavonoid hybrids with sigma-1 affinity and inhibition of key enzymes in Alzheimer's disease” (Eur J Med Chem, 2018).
# The source made the active and inactive calls. No cut-off for these calls is given here.
# What was measured:
# Acetylcholinesterase [1] = target: T1, Acetylcholinesterase (Homo sapiens, UniProt P22303); assay: Inhibition of recombinant human AChE expressed in HEK293 cells using acetylthiocholine iodide as substrate pretreated for 5 mins followed by substrate addition and measured for 5 mins by Ellman's method
# T1 sequence (P22303 whole entry): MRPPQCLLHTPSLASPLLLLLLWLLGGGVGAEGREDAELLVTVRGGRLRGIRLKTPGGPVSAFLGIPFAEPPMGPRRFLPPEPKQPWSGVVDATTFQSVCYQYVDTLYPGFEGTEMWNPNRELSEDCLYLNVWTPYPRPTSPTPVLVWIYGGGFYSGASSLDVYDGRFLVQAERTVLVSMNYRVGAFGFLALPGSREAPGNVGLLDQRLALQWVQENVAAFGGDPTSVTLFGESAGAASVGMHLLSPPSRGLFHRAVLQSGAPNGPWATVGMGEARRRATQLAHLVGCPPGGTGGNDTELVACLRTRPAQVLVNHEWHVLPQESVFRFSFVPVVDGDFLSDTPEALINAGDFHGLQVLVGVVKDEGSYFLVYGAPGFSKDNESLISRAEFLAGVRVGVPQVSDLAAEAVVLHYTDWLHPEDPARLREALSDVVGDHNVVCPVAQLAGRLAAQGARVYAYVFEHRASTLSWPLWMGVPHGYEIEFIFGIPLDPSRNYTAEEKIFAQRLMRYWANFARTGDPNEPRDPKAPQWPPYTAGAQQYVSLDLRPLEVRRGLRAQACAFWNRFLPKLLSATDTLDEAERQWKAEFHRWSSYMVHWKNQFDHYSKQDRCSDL
# Cholinesterase = Cholinesterase (Homo sapiens, UniProt P06276); assay: Inhibition of human serum BuChE using butyrylthiocholine as substrate pretreated for 5 mins followed by substrate addition and measured for 5 mins by Ellman's method
# Chain of Cholinesterase (P06276 whole entry): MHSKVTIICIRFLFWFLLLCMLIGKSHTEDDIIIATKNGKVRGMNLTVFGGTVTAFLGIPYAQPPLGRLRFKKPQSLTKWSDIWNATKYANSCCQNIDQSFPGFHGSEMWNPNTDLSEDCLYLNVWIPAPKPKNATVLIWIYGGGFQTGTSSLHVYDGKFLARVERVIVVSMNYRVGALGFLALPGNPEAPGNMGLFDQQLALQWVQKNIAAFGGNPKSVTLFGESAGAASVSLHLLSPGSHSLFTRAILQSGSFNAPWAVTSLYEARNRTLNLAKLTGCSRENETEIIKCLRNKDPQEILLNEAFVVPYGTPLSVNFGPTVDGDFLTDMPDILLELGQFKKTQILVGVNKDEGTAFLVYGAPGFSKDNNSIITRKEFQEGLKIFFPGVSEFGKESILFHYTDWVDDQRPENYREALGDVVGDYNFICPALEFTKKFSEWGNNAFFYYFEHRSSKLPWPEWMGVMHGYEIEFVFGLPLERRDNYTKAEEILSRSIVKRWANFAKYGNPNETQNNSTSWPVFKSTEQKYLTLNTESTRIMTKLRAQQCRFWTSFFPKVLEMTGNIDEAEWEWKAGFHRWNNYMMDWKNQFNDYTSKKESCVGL
# Homo sapiens [2] = organism: Homo sapiens; assay: Selectivity index, ratio of IC50 for human serum BuChE to IC50 for recombinant human AChE expressed in HEK293 cells; format: cell-based
# SH-SY5Y [3] = assay: Neuroprotective activity against rotenone/oligomycin A-induced mitochondrial oxidative stress in human SH-SY5Y cells at 0.1 uM after 24 hrs by MTT assay relative to control; format: functional
# SH-SY5Y [4] = assay: Neuroprotective activity against rotenone/oligomycin A-induced mitochondrial oxidative stress in human SH-SY5Y cells at 0.3 uM after 24 hrs by MTT assay relative to control; format: functional
# SH-SY5Y [5] = assay: Neuroprotective activity against rotenone/oligomycin A-induced mitochondrial oxidative stress in human SH-SY5Y cells at 1 uM after 24 hrs by MTT assay relative to control; format: functional
# SH-SY5Y [6] = assay: Neuroprotective activity against rotenone/oligomycin A-induced mitochondrial oxidative stress in human SH-SY5Y cells at 3 uM after 24 hrs by MTT assay relative to control; format: functional
# in vitro = conditions: PAMPA, pH 7.4
# Description: Permeability of the compound in pH 7.4 PBS by PAMPA-BBB assay
# Acetylcholinesterase [7] = target: T1, Acetylcholinesterase; assay: Inhibition of recombinant human AChE expressed in HEK293 cells using varying levels of acetylthiocholine iodide as substrate by Lineweaver-burk plot analysis
# [8] = target: T2, Polyunsaturated fatty acid 5-lipoxygenase (Homo sapiens, UniProt P09917); assay: Inhibition of human 5-lipoxygenase using arachidonic acid as substrate pretreated for 10 mins followed by substrate and ATP addition and measured after 20 mins by H2DCFDA probe based fluorescence assay
# T2 sequence (P09917 whole entry): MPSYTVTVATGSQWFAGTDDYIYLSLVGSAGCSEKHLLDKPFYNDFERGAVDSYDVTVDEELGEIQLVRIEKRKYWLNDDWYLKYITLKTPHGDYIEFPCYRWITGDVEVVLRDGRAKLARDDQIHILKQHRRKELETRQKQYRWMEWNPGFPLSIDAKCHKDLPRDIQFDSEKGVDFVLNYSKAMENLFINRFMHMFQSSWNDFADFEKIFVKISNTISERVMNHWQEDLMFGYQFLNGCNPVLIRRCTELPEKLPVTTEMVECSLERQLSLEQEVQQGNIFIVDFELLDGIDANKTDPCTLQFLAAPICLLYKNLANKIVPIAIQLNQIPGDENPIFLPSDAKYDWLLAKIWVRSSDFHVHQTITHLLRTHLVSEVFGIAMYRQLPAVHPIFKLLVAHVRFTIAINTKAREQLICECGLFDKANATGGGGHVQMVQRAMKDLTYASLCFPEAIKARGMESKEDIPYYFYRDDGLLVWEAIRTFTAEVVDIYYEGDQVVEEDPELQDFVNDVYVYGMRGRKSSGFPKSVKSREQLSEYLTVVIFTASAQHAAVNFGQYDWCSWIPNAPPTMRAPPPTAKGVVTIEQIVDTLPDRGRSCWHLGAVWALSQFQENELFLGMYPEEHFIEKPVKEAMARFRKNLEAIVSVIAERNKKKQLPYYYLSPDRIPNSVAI
# [9] = target: T3, Amine oxidase [flavin-containing] A (Homo sapiens, UniProt P21397); assay: Inhibition of recombinant human MAO-A expressed in baculovirus infected BTI insect cells using p-tyramine as substrate pretreated for 15 mins followed by substrate addition by horse-radish peroxidase/amplex red-based fluorescence method
# T3 sequence (P21397 whole entry): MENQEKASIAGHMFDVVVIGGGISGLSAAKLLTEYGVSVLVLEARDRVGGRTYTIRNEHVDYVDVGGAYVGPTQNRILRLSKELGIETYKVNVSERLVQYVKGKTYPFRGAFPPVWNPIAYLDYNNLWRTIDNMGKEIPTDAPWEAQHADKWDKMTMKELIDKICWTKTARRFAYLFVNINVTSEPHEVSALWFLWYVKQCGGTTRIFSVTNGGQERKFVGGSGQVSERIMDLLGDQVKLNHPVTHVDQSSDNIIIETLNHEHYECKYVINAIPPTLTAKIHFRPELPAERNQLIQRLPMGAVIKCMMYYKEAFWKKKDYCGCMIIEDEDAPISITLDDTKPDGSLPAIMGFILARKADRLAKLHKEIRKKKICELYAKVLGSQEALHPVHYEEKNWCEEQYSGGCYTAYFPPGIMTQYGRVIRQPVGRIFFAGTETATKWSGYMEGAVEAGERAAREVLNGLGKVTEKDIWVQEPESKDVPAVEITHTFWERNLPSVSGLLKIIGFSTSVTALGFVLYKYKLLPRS
# [10] = target: T4, Amine oxidase [flavin-containing] B (Homo sapiens, UniProt P27338); assay: biochemical; format: cell-based
# T4 sequence (P27338 whole entry): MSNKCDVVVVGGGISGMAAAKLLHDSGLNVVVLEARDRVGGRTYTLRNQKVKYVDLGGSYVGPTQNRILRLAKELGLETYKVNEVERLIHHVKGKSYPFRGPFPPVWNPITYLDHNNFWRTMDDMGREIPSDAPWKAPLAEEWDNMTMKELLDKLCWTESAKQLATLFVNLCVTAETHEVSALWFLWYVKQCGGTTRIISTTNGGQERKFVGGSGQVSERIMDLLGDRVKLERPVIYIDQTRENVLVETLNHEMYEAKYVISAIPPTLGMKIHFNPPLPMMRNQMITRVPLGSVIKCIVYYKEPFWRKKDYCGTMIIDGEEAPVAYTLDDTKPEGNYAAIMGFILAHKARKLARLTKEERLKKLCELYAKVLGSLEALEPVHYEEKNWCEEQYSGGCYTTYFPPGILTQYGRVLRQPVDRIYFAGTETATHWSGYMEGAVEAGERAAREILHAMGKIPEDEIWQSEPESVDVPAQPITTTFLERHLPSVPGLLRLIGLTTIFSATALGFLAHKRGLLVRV
# Description: Inhibition of recombinant human MAO-B expressed in baculovirus infected BTI insect cells using p-tyramine as substrate pretreated for 15 mins followed by substrate addition by horse-radish peroxidase/amplex red-based fluorescence method
# [11] = Antioxidant activity assessed as trolox equivalent of AAPH-induced radical scavenging activity pretreated for 15 mins followed by APPH challenge measured every minute for 80 mins by ORAC-FL assay; format: functional
# [12] = target: Sigma non-opioid intracellular receptor 1 (Cavia porcellus, UniProt Q60492); assay: Displacement of (+)-[3H]pentazocine from guinea pig brain membrane sigma1 receptor by liquid scintillation counting method
# Chain of Sigma non-opioid intracellular receptor 1 (Q60492 whole entry): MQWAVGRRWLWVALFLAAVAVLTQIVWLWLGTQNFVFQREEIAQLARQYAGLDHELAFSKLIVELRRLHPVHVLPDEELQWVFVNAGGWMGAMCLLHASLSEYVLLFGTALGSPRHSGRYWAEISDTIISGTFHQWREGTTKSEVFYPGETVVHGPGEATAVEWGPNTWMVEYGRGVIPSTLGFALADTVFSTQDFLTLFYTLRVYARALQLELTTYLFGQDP
# [13] = target: T5, Sigma intracellular receptor 2 (Rattus norvegicus, UniProt Q5U3Y7); assay: Displacement of [3H]DTG from sigma2 receptor in rat liver membranes by liquid scintillation counting method; format: cell membranes, Membrane
# T5 sequence (Q5U3Y7 whole entry): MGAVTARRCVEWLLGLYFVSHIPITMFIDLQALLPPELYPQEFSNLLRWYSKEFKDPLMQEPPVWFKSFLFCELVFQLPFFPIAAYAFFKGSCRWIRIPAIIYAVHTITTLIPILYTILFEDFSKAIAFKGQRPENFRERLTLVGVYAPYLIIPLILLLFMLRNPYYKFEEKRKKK
# [14] = Selectivity ratio of Ki for displacement of [3H]DTG from sigma2 receptor in rat liver membranes to Ki for displacement of (+)-[3H]pentazocine from guinea pig brain membrane sigma1 receptor; format: cell membranes
# [15] = target: T6, Polyunsaturated fatty acid 5-lipoxygenase (Homo sapiens) (UniProt P09917); assay: Inhibition of human 5-lipoxygenase at 10 uM using arachidonic acid as substrate pretreated for 10 mins followed by substrate and ATP addition and measured after 20 mins by […] probe based fluorescence assay relative to control
# T6 sequence (whole entry): T2 sequence (P09917 whole entry)
# Homo sapiens [16] = organism: Homo sapiens; assay: Selectivity ratio of IC50 for recombinant human MAO-B expressed in baculovirus infected BTI insect cells to IC50 for recombinant human MAO-A expressed in baculovirus infected BTI insect cells
# [17] = Antioxidant activity assessed as trolox equivalent of AAPH-induced radical scavenging activity at 10 uM pretreated for 15 mins followed by APPH challenge measured every minute for 80 mins by ORAC-FL assay; format: functional
structure (smiles),measurement,setting,value
COc1cc2oc(C(=O)NC3CCN(Cc4ccccc4)CC3)cc(=O)c2cc1OC,IC50,Acetylcholinesterase [1],660 nM
same,IC50,Cholinesterase,> 10 µM
same,Ratio IC50,Homo sapiens [2],> 15
same,Activity,SH-SY5Y [3],5.7%
same,Activity,SH-SY5Y [4],18%
same,Activity,SH-SY5Y [5],12.3%
same,Activity,SH-SY5Y [6],12.6%
same,Papp,in vitro,8.1 ×10⁻⁶ cm/s
COc1ccc2oc(C(=O)NC3CCN(Cc4ccccc4)CC3)cc(=O)c2c1,IC50,Acetylcholinesterase [1],970 nM
same,IC50,Cholinesterase,> 10 µM
same,Ratio IC50,Homo sapiens [2],> 10
same,Activity,SH-SY5Y [3],9.8%
same,Activity,SH-SY5Y [4],13.9%
same,Activity,SH-SY5Y [5],14.6%
same,Activity,SH-SY5Y [6],8.6%
same,Papp,in vitro,7.7 ×10⁻⁶ cm/s
O=C(NCCCC1CCN(Cc2ccccc2)CC1)c1cc(=O)c2cc(O)ccc2o1,IC50,Acetylcholinesterase [1],23 nM
same,IC50,Cholinesterase,> 10 µM
same,Ratio IC50,Homo sapiens [2],> 435
same,Ki,Acetylcholinesterase [7],11 nM
same,IC50,[8],15.1 µM
same,IC50,[9],> 100 µM
same,IC50,[10],> 100 µM
same,Activity (umolequiv/umol),[11],1.3
same,Ki,[12],3.48 nM
same,Ki,[13],301 nM
same,Ratio Ki,[14],87
same,Papp,in vitro,4.5 ×10⁻⁶ cm/s
O=C(NCCC1CCN(Cc2ccccc2)CC1)c1cc(=O)c2cc(O)ccc2o1,IC50,Acetylcholinesterase [1],91 nM
same,IC50,Cholinesterase,> 10 µM
same,Ratio IC50,Homo sapiens [2],> 110
same,IC50,[8],> 100 µM
same,inhibition,[15],36%
same,IC50,[9],39.3 µM
same,IC50,[10],51.2 µM
same,Activity (umolequiv/umol),[11],1.2
same,Ki,[12],42.1 nM
same,Ki,[13],345 nM
same,Ratio Ki,[14],8
same,Activity,SH-SY5Y [3],15%
same,Activity,SH-SY5Y [4],18.8%
same,Activity,SH-SY5Y [5],8.6%
same,Activity,SH-SY5Y [6],15.2%
same,Papp,in vitro,2.8 ×10⁻⁶ cm/s
Nc1ccc2oc(C(=O)NCCC3CCN(Cc4ccccc4)CC3)cc(=O)c2c1,IC50,Acetylcholinesterase [1],41 nM
same,IC50,Cholinesterase,4.3 µM
same,Ratio IC50,Homo sapiens [2],105
same,Ki,Acetylcholinesterase [7],62 nM
same,IC50,[8],28.9 µM
same,IC50,[9],> 100 µM
same,IC50,[10],> 100 µM
same,Activity (umolequiv/umol),[11],0.9
same,Ki,[12],1.45 nM
same,Ki,[13],421 nM
same,Ratio Ki,[14],290
same,Papp,in vitro,7.6 ×10⁻⁶ cm/s
COc1cc2oc(C(=O)OCC3CCN(Cc4ccccc4)CC3)cc(=O)c2cc1OC,IC50,Acetylcholinesterase [1],300 nM
same,IC50,Cholinesterase,> 10 µM
same,Ratio IC50,Homo sapiens [2],> 33
same,Activity,SH-SY5Y [3],19.4%
same,Activity,SH-SY5Y [4],19.6%
same,Activity,SH-SY5Y [5],6.8%
same,Activity,SH-SY5Y [6],12.4%
same,Papp,in vitro,3.2 ×10⁻⁶ cm/s
O=C(NCCC1CCN(Cc2ccccc2)CC1)c1cc(=O)c2cc(O)ccc2[nH]1,IC50,Acetylcholinesterase [1],300 nM
same,IC50,Cholinesterase,9.88 µM
same,Ratio IC50,Homo sapiens [2],33
same,IC50,[9],51.3 µM
same,IC50,[10],59.9 µM
same,Activity (umolequiv/umol),[11],1.4
same,Activity,SH-SY5Y [3],18.6%
same,Activity,SH-SY5Y [4],13.7%
same,Activity,SH-SY5Y [5],17.4%
same,Activity,SH-SY5Y [6],29.7%
same,Papp,in vitro,5.1 ×10⁻⁶ cm/s
O=C(NCCC1CCN(Cc2ccccc2)CC1)c1cc(=O)c2cc([N+](=O)[O-])ccc2o1,IC50,Acetylcholinesterase [1],21 nM
same,IC50,Cholinesterase,9.3 µM
same,Ratio IC50,Homo sapiens [2],443
same,Ki,Acetylcholinesterase [7],12 nM
same,IC50,[8],9.8 µM
same,IC50,[9],20.5 µM
same,IC50,[10],> 100 µM
same,Ratio IC50,Homo sapiens [16],> 5
same,Activity,[17],inactive
same,Ki,[12],0.98 nM
same,Ki,[13],287 nM
same,Ratio Ki,[14],293
same,Papp,in vitro,8.2 ×10⁻⁶ cm/s
O=C(NCCC1CCN(Cc2ccccc2)CC1)c1cc(=O)c2cc(O)c(O)cc2o1,IC50,Acetylcholinesterase [1],4130 nM
same,IC50,Cholinesterase,> 10 µM
same,Ratio IC50,Homo sapiens [2],> 2.4
same,IC50,[8],4.2 µM
same,IC50,[9],70.5 µM
same,IC50,[10],37.9 µM
same,Activity (umolequiv/umol),[11],1.7
same,Ki,[12],27 nM
same,Ki,[13],278 nM
same,Ratio Ki,[14],10
same,Papp,in vitro,3.2 ×10⁻⁶ cm/s
O=C(NCCC1CCN(Cc2ccccc2)CC1)c1cc(=O)c2c(O)cc(O)cc2o1,IC50,Acetylcholinesterase [1],580 nM
same,IC50,Cholinesterase,> 10 µM
same,Ratio IC50,Homo sapiens [2],> 17
same,IC50,[8],95.1 µM
same,Activity (umolequiv/umol),[11],0.8
same,Papp,in vitro,3.7 ×10⁻⁶ cm/s
